Experimental data as given in US6201147A, “Process for the resolution of esters of arylalkylcarboxylic acids” (BASF Aktiengesellschaft, priority 1998, dated 2001).

Assays:
lipase CAL-B = target: T1, lipase CAL-B (Moesziomyces antarcticus, UniProt P41365); test: Lipase-catalyzed transesterification with methanol in toluene; assay type: biochemical, Candida antarctica; conditions: 40° C., 5 hours, calculated from conversion and eep
T1 construct: purchased Boehringer Mannheim
T1 sequence (P41365 26-342): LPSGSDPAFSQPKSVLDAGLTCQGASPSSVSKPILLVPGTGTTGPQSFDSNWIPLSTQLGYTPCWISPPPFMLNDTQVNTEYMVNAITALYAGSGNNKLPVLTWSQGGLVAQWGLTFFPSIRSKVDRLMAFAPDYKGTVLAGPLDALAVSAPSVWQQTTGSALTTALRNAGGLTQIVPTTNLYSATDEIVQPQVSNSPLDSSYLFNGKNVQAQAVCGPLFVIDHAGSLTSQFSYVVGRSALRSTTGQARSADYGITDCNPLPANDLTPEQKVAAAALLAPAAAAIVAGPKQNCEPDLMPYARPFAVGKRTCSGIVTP
Protocol: The racemic ibuprofen vinyl ester (209 mg, 0.90 mmol) and methanol (240 mg, 7.5 mmol) were disolved in 8 ml toluene and stirred at 40° C. The reaction was started by adding 416 mg of lipase CAL-B (L-2, c.f., C2, lyo.; Boehringer Mannheim). After 5 hours, the reaction was completed by filtering off the lipase, and the reaction mixture was analyzed by gas chromatography in a chiral column (2,3 di-O-methyl-6-O-pentyl-ε-cyclodextrin). The product and unreacted substrate were purified by flash chromatography on silica gel (developer: ligroin/diethyl ether 35:1). Conversion (GC): 40.5%; Yields: ibuprofen methyl ester 64 mg (0.29 mmol; 32%), eep =76% (GC); ibuprofen vinyl ester 98 mg (0.42 mmol, 47%), ees =[…] (calculated from conversion and eep). An E value of 12 is calculated from conversion and eep.

[1] = target: T2, Candida antarctica lipase (CAL-B, Chirazyme L-2) (Moesziomyces antarcticus, UniProt P41365); test: Lipase-catalyzed transesterification with n-hexanol in toluene; assay type: biochemical; conditions: for equilibrium constant (value in brackets): transesterification of ethyl esters with n-hexanol, calculated according to Anthonsen et al.
T2 construct: purchased Boehringer Mannheim, Penzberg, Germany
T2 sequence (P41365 26-342): T1 sequence (P41365 26-342)
Protocol: (§1) If not described otherwise, the ^1 H-NMR spectra were recorded at 250.1 and 500.1 MHz and the ^13 C-NMR spectra at 62.9 and 125.7 MHz in CDCl3 using tetramethylsilane as an internal standard. In cases in which both the racemate and the enatiomeric pure compounds were synthesized, the racemate was used for the full characterization of the compound. […] The gas-chromatography (=GC) analyses were carried out with an Optima 5 column (25 m×0.25 mm; Macherey & Nagel, Duren, Germany) for the determination of the conversion and purity and with a heptakis-(2,3-di-O-acetyl-6-O-TBDMS) -β-cyclodextrin column (25 m×0.25 mm, Prof. W. A. Konig, University of Hamburg, Germany) for the determination of the enantiomeric excess. The immobilized lipase used was Candida antarctica lipase (Chirazyme L-2, c.-f., C2, 5000 U/g) from Boehringer Mannheim, Penzberg, Germany, if not described otherwise. The absolute configuration of the biotransformation products was determined by means of comparison with optically pure standards, which were prepared from the commercially obtainable optically pure carboxylic acids. The enantiomeric excess was calculated by comparison with literature values. The enantioselectivity was determined using the formula E=[ln{(1-c)×(1-ees)}]/[ln{(1-c)×(1+ees)}],
Lipase-catalyzed transesterification: 100 μl of the vinyl esters (0.52 mmol) and 560 μl of n-hexanol (4.49 mmol) were […] stirrer. The reaction was started by addition of 100 mg of CAL-B lipase (500 U) (see Scheme II). Samples were taken from the reaction, diluted with toluene and the lipase was removed by means of centrifugation. The samples were analyzed by GC using the Optima 5 column. After ending the reaction by filtration, product and unreacted substrate were purified by flash chromatography. The enantiomeric purities were determined by means of the specific rotation. In the case of the substrates (±)-3, (±) -4 and (±) -6, the optical purity was additionally determined by means of chiral GC. The ethyl esters were correspondingly reacted as a comparison experiment (see Scheme III). The hydrolysis of the ethyl esters was carried out as a further comparison experiment (see Scheme III).

[2] = target: T2, Candida antarctica lipase (CAL-B, Chirazyme L-2); test: Hydrolysis of the ethyl esters with pH-statting; assay type: biochemical; conditions: hydrolysis in phosphate buffer 50 mM, pH 7.5, 40° C., calculated according to Chen et al.
Protocol: as §1
The hydrolysis of the ethyl esters was carried out with pH-statting. In general, 1 mmol of substrate (6-8) was taken up at 40° C. in 20 ml of phosphate buffer (50 mM, pH 7.5). 200 mg of CAL-B (1000 U) were added at the start of the reaction. The pH was kept constant through the reaction using 0.1 N NaOH. After consumption of base indicated a marked conversion of the substrate, unused substrate was removed by means of extraction with heptane. […] The organic phases were dried using Na2 SO4 and the enantiomeric excess was determined for all compounds by means of the specific rotation and for (±)-6 additionally by means of chiral GC.

[3] = transesterification with n-hexanol in toluene, 40° C., CAL-B, calculated according to Chen et al.

Row | E value (lipase CAL-B) | equilibrium constant (value in brackets) ([1]; 40° C.) | E (enantioselectivity) [1, 3] | E (enantioselectivity) [2] | E (enantioselectivity) ([1]; transesterification with n-hexanol in toluene at room temperature (about 23° C.)) | SMILES
1 | 12 | – | – | – | – | C=COC(=O)C(C)c1ccc(CC(C)C)cc1 (racemic) [ibuprofen vinyl ester]
2 | – | 135 | 4.9 | 9 | – | CCOC(=O)CC(C)c1ccccc1 (racemic) [(±)-8, Ethyl (±) -3-phenylbutyrate]
3 | – | – | 26 | – | – | C=COC(=O)C(C)c1ccccc1 (racemic) [(±)-4, Vinyl (±)-2-phenylpropionate]
4 | – | – | 13 | – | 23 | C=COC(=O)CC(C)c1ccccc1 (racemic) [(±)-5, Vinyl (±)-3-phenylbutyrate]
5 | – | – | > 100 | – | – | C=COC(=O)C(CC)c1ccccc1 (racemic) [(±)-3, Vinyl (±)-2-phenylbutyrate]
6 | – | 123 | 6.8 | 3.5 | – | CCOC(=O)C(C)c1ccccc1 (racemic) [(±)-7, Ethyl (±)-2-phenylpropionate]
7 | – | 110 | 5.7 | 3.7 | – | CCOC(=O)C(CC)c1ccccc1 (racemic) [(±)-6, Ethyl (±)-2-phenylbutyrate]
